# Data published in patent US10597388B2, “Pyridazinone herbicides” (FMC CORPORATION, priority 2014, dated 2020).
# How the values were obtained:
# Assay type in all cases: in vivo
# [1] = system: momingglory (Ipomoea coccinea); experiment: Test E greenhouse herbicide test, pre- and postemergence; conditions: Preemergence
# Procedure, shortened: (§1)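 For each species, sown seed in silt loam and young plants (2 to 18 cm) in a peat/vermiculite medium were each treated with compound dissolved in surfactant-containing, non-phytotoxic solvent. After 14 to 21 d under greenhouse conditions, effects were visually rated, 100 meaning complete control.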
# [2] = system: pigweed, palmer (palmer pigweed, Amaranthus palmeri); experiment: as above
# Procedure, shortened: as §1
# [3] = system: waterhemp (common waterhemp, Amaranthus rudis); experiment: as above
# Procedure, shortened: as §1
# [4] = system: soybean (Glycine max); experiment: as above
# Procedure, shortened: as §1
# [5] = system: beggarticks (hairy beggarticks, Bidens pilosa); experiment: as above
# Procedure, shortened: as §1
# [6] = system: nutsedge, yellow (yellow nutsedge, Cyperus esculentus); experiment: as above; conditions: Preemergence
# Procedure, shortened: as §1
# [7] = system: johnsongrass (Sorghum halepense); experiment: as above; conditions: Preemergence
# Procedure, shortened: as §1
# [8] = system: ragweed (common ragweed, Ambrosia elatior); experiment: as above
# Procedure, shortened: as §1
# [9] = system: field bindweed (Convolvulus arvensis); experiment: as above
# Procedure, shortened: as §1
# [10] = system: dayflower (Virginia (VA) dayflower, Commelina virginica); experiment: as above
# Procedure, shortened: as §1
# [11] = system: waterhemp_RES1 (ALS & Triazine resistant common waterhemp, Amaranthus rudis); experiment: Test E greenhouse herbicide test, postemergence
# Procedure, shortened: (§2)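 Formulated compounds are applied postemergence to potted waterhemp at 1–4 leaves (2–18 cm high). Plants stay in the greenhouse for 14 to 21 d before visual comparison with controls, and control is scored from 0 (none) to 100 (complete).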
# [12] = system: waterhemp_RES2 (ALS & HPPD resistant common waterhemp, Amaranthus rudis); experiment: Test E greenhouse herbicide test, postemergence
# Procedure, shortened: as §2
# [13] = 62 g ai/ha, scale 0 to 100 (0 no effect, 100 complete control)
# [14] = 125 g ai/ha, scale 0 to 100 (0 no effect, 100 complete control)
# [15] = 31 g ai/ha, scale 0 to 100, 0 no effect, 100 complete control
# [16] = 250 g ai/ha, visual, scale 0 no effect to 100 complete control
# [17] = 62 g ai/ha, Postemergence, scale 0 to 100 (0 no effect, 100 complete control)
# [18] = 62 g ai/ha, Preemergence, scale 0 to 100 (0 no effect, 100 complete control)
# [19] = 125 g ai/ha, Postemergence, scale 0 to 100 (0 no effect, 100 complete control)
# [20] = 125 g ai/ha, Preemergence, scale 0 to 100 (0 no effect, 100 complete control)
# [21] = 250 g ai/ha, Postemergence, scale 0 to 100 (0 no effect, 100 complete control)
# [22] = Postemergence, 31 g ai/ha, visual, scale 0 no effect to 100 complete control
# [23] = Preemergence, 31 g ai/ha, scale 0 to 100, 0 no effect, 100 complete control
# [24] = Preemergence, 250 g ai/ha, visual, scale 0 no effect to 100 complete control
# [25] = 31 g ai/ha, visual, scale 0 no effect to 100 complete control
# [26] = 250 g ai/ha, scale 0 to 100 (0 no effect, 100 complete control)
# [27] = 16 g ai/ha, scale 0 to 100, 0 no effect, 100 complete control
# [28] = Postemergence, 16 g ai/ha, visual, scale 0 no effect to 100 complete control
# [29] = Preemergence, 16 g ai/ha, scale 0 to 100, 0 no effect, 100 complete control
structure (smiles),measurement,setting,value
Cc1cc(C)c2sc(C)c(-c3c(OC(=O)OCCCl)c(C)nn(C)c3=O)c2c1 [Compound 85],"Plant response rating, Morningglory",[1]; [13],30
same,"Plant response rating, Morningglory",[1]; [14],50
same,"Plant response rating, Morningglory",[1]; [15],25
same,"Plant response rating, Morningglory",[1]; [16],100
same,"Plant response rating, Pigweed, Palmer",[2]; [17],80
same,"Plant response rating, Pigweed, Palmer",[2]; [18],30
same,"Plant response rating, Pigweed, Palmer",[2]; [19],80
same,"Plant response rating, Pigweed, Palmer",[2]; [20],50
same,"Plant response rating, Pigweed, Palmer",[2]; [21],80
same,"Plant response rating, Pigweed, Palmer",[2]; [22],65
same,"Plant response rating, Pigweed, Palmer",[2]; [23],25
same,"Plant response rating, Pigweed, Palmer",[2]; [24],90
same,"Plant response rating, Waterhemp",[3]; [18],80
same,"Plant response rating, Waterhemp",[3]; [19],65
same,"Plant response rating, Waterhemp",[3]; [20],70
same,"Plant response rating, Waterhemp",[3]; [21],90
same,"Plant response rating, Waterhemp",[3]; [22],50
same,"Plant response rating, Waterhemp",[3]; [23],35
same,"Plant response rating, Waterhemp",[3]; [24],85
same,"Plant response rating, Soybean",[4]; [18],0
same,"Plant response rating, Soybean",[4]; [19],5
same,"Plant response rating, Soybean",[4]; [20],0
same,"Plant response rating, Soybean",[4]; [21],15
same,"Plant response rating, Soybean",[4]; [22],0
same,"Plant response rating, Soybean",[4]; [23],0
same,"Plant response rating, Soybean",[4]; [24],0
same,"Plant response rating, Beggarticks",[5]; [17],100
same,"Plant response rating, Beggarticks",[5]; [18],100
same,"Plant response rating, Beggarticks",[5]; [19],100
same,"Plant response rating, Beggarticks",[5]; [20],100
same,"Plant response rating, Beggarticks",[5]; [21],100
same,"Plant response rating, Beggarticks",[5]; [22],90
same,"Plant response rating, Beggarticks",[5]; [23],90
same,"Plant response rating, Beggarticks",[5]; [24],100
same,"Plant response rating, Nutsedge, Yellow",[6]; [13],35
same,"Plant response rating, Nutsedge, Yellow",[6]; [14],35
same,"Plant response rating, Nutsedge, Yellow",[6]; [16],65
same,"Plant response rating, Johnsongrass",[7]; [13],0
same,"Plant response rating, Johnsongrass",[7]; [14],0
same,"Plant response rating, Johnsongrass",[7]; [15],0
same,"Plant response rating, Johnsongrass",[7]; [16],0
same,"Plant response rating, Ragweed",[8]; [17],50
same,"Plant response rating, Ragweed",[8]; [18],80
same,"Plant response rating, Ragweed",[8]; [19],60
same,"Plant response rating, Ragweed",[8]; [20],90
same,"Plant response rating, Ragweed",[8]; [21],85
same,"Plant response rating, Ragweed",[8]; [22],50
same,"Plant response rating, Ragweed",[8]; [23],60
same,"Plant response rating, Ragweed",[8]; [24],98
same,"Plant response rating, Field Bindweed",[9]; [17],50
same,"Plant response rating, Field Bindweed",[9]; [18],5
same,"Plant response rating, Field Bindweed",[9]; [19],60
same,"Plant response rating, Field Bindweed",[9]; [20],20
same,"Plant response rating, Field Bindweed",[9]; [21],90
same,"Plant response rating, Field Bindweed",[9]; [22],50
same,"Plant response rating, Field Bindweed",[9]; [24],95
same,"Plant response rating, Dayflower, VA",[10]; [17],60
same,"Plant response rating, Dayflower, VA",[10]; [18],0
same,"Plant response rating, Dayflower, VA",[10]; [19],60
same,"Plant response rating, Dayflower, VA",[10]; [20],30
same,"Plant response rating, Dayflower, VA",[10]; [21],80
same,"Plant response rating, Dayflower, VA",[10]; [22],50
same,"Plant response rating, Dayflower, VA",[10]; [23],0
same,"Plant response rating, Dayflower, VA",[10]; [24],75
same,"Plant response rating, Waterhemp_RES1",[11]; [25],80
same,"Plant response rating, Waterhemp_RES1",[11]; [14],75
same,"Plant response rating, Waterhemp_RES1",[11]; [26],80
same,"Plant response rating, Waterhemp_RES2",[12]; [25],40
same,"Plant response rating, Waterhemp_RES2",[12]; [14],40
same,"Plant response rating, Waterhemp_RES2",[12]; [26],50
CCC(=O)Oc1c(C)nn(C)c(=O)c1-c1c(C)sc2ccc(Cl)cc12 [Compound 109],"Plant response rating, Morningglory",[1]; [14],65
same,"Plant response rating, Morningglory",[1]; [27],0
same,"Plant response rating, Morningglory",[1]; [15],0
same,"Plant response rating, Pigweed, Palmer",[2]; [17],65
same,"Plant response rating, Pigweed, Palmer",[2]; [19],100
same,"Plant response rating, Pigweed, Palmer",[2]; [20],85
same,"Plant response rating, Pigweed, Palmer",[2]; [28],60
same,"Plant response rating, Pigweed, Palmer",[2]; [22],50
same,"Plant response rating, Pigweed, Palmer",[2]; [29],0
same,"Plant response rating, Pigweed, Palmer",[2]; [23],20
same,"Plant response rating, Waterhemp",[3]; [19],90
same,"Plant response rating, Waterhemp",[3]; [20],98
same,"Plant response rating, Waterhemp",[3]; [28],60
same,"Plant response rating, Waterhemp",[3]; [22],75
same,"Plant response rating, Waterhemp",[3]; [29],0
same,"Plant response rating, Waterhemp",[3]; [23],0
same,"Plant response rating, Soybean",[4]; [19],20
same,"Plant response rating, Soybean",[4]; [20],0
same,"Plant response rating, Soybean",[4]; [28],0
same,"Plant response rating, Soybean",[4]; [22],0
same,"Plant response rating, Soybean",[4]; [29],0
same,"Plant response rating, Soybean",[4]; [23],0
same,"Plant response rating, Beggarticks",[5]; [17],85
same,"Plant response rating, Beggarticks",[5]; [18],100
same,"Plant response rating, Beggarticks",[5]; [19],100
same,"Plant response rating, Beggarticks",[5]; [20],100
same,"Plant response rating, Beggarticks",[5]; [28],80
same,"Plant response rating, Beggarticks",[5]; [22],90
same,"Plant response rating, Beggarticks",[5]; [29],20
same,"Plant response rating, Beggarticks",[5]; [23],75
same,"Plant response rating, Nutsedge, Yellow",[6]; [14],40
same,"Plant response rating, Nutsedge, Yellow",[6]; [27],0
same,"Plant response rating, Nutsedge, Yellow",[6]; [15],0
same,"Plant response rating, Johnsongrass",[7]; [14],40
same,"Plant response rating, Johnsongrass",[7]; [27],0
same,"Plant response rating, Johnsongrass",[7]; [15],0
same,"Plant response rating, Ragweed",[8]; [17],90
same,"Plant response rating, Ragweed",[8]; [19],95
same,"Plant response rating, Ragweed",[8]; [20],100
same,"Plant response rating, Ragweed",[8]; [28],80
same,"Plant response rating, Ragweed",[8]; [22],85
same,"Plant response rating, Ragweed",[8]; [29],0
same,"Plant response rating, Ragweed",[8]; [23],5
same,"Plant response rating, Field Bindweed",[9]; [17],95
same,"Plant response rating, Field Bindweed",[9]; [18],40
same,"Plant response rating, Field Bindweed",[9]; [19],90
same,"Plant response rating, Field Bindweed",[9]; [20],80
same,"Plant response rating, Field Bindweed",[9]; [28],75
same,"Plant response rating, Field Bindweed",[9]; [22],80
same,"Plant response rating, Field Bindweed",[9]; [29],0
same,"Plant response rating, Field Bindweed",[9]; [23],0
same,"Plant response rating, Dayflower, VA",[10]; [17],50
same,"Plant response rating, Dayflower, VA",[10]; [18],25
same,"Plant response rating, Dayflower, VA",[10]; [19],60
same,"Plant response rating, Dayflower, VA",[10]; [20],25
same,"Plant response rating, Dayflower, VA",[10]; [28],30
same,"Plant response rating, Dayflower, VA",[10]; [22],30
same,"Plant response rating, Dayflower, VA",[10]; [29],0
same,"Plant response rating, Dayflower, VA",[10]; [23],25
same,"Plant response rating, Waterhemp_RES1","[11]; 16 g ai/ha, visual, scale 0 no effect to 100 complete control",60
same,"Plant response rating, Waterhemp_RES1",[11]; [25],70
same,"Plant response rating, Waterhemp_RES1",[11]; [14],90
same,"Plant response rating, Waterhemp_RES2",[12]; [25],50
same,"Plant response rating, Waterhemp_RES2",[12]; [14],60
